From US11814367B2, “Inhibitors of glycogen synthase 1 (GYS1) and methods of use thereof” (Maze Therapeutics, Inc., priority 2021, dated 2023)

What was measured:
[1] = molecular target: hGYS1 enzyme (recombinant hGYS1/GN1 protein) (Homo sapiens (Human), UniProt P13807); experiment: GYS1 coupled enzyme assay (PK/LDH); assay type: biochemical; conditions: hGYS1/GN1 50 nM, UDP-Glucose 0.8 mM, G6P 1 mM; geometric mean of at least 2 runs
[2] = tested on: hGYS1 enzyme / glycogen synthesis in HeLa cells; experiment: GYS1 cell based assay (glycogen synthesis, Glucose-glo); parameters: species or system human; conditions: Homo sapiens, HeLa, 24 h, 24 h incubation, 20 mM glucose, geometric mean of at least 2 runs
Method in brief: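 HeLa cells starved 24 h in medium containing only 1× Glutamax were plated onto compound in medium with 20 mM glucose (1% DMSO final) for 24 h, 37 °C, 5% CO2. Acid lysates were Tris-quenched, glucoamylase-digested (pH 5.3, 1 h, 37 °C) and read by Glucose-glo luminescence. IC50 came from Hill fits, as geometric mean of ≥2 runs.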

[3] = molecular target: hGYS2 enzyme (recombinant hGYS2/GN1 protein) (Homo sapiens (Human), UniProt P54840); experiment: GYS2 coupled enzyme assay (PK/LDH); assay type: biochemical; conditions: geometric mean of at least 2 assay runs on separate days, read-out: Avg_IC50
Method in brief: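 hGYS2/GN1 200 nM; UDP-Glc 2 mM; glycogen 0.2%; G6P 2 mM; PEP 2 mM, NADH 0.6 mM, PK/LDH 20 U/mL. 50 mM Tris pH 7.5, MgCl2, KCl, BSA, TCEP, 2.5% DMSO. Kinetic A340, 10 min. IC50 = geomean of ≥2 runs.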

Sequence of hGYS2 enzyme (recombinant hGYS2/GN1 protein) (P54840 whole entry): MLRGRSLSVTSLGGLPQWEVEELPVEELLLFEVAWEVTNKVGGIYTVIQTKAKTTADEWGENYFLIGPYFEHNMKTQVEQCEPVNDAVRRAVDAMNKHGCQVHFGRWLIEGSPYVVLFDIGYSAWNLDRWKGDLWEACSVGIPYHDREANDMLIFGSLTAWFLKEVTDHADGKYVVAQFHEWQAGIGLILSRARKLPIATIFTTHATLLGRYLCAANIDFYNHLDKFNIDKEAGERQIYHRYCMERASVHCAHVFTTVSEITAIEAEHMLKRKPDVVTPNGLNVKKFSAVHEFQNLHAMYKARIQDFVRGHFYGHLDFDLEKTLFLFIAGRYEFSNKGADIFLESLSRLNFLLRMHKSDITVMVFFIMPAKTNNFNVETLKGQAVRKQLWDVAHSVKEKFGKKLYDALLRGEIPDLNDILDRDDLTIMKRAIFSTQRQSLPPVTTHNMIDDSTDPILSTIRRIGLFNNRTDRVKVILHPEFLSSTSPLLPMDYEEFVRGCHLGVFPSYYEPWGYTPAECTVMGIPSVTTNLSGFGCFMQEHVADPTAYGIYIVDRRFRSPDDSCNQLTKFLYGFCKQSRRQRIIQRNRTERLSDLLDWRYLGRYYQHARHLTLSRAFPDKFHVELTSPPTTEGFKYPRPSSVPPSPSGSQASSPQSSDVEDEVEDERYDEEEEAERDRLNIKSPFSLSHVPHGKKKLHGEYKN
Sequence of hGYS2 enzyme (recombinant hGYS2/GN1 protein) (P46976 whole entry partner): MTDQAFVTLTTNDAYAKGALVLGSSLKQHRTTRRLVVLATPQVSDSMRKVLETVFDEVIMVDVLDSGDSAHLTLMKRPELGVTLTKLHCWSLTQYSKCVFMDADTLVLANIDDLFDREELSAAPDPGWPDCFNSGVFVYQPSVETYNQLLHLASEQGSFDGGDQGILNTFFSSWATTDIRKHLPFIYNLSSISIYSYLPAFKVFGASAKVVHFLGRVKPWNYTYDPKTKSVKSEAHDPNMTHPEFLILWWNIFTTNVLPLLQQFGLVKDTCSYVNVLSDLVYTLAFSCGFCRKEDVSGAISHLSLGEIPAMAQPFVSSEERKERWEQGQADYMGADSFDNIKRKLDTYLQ
Sequence of hGYS1 enzyme (recombinant hGYS1/GN1 protein) (P13807 whole entry): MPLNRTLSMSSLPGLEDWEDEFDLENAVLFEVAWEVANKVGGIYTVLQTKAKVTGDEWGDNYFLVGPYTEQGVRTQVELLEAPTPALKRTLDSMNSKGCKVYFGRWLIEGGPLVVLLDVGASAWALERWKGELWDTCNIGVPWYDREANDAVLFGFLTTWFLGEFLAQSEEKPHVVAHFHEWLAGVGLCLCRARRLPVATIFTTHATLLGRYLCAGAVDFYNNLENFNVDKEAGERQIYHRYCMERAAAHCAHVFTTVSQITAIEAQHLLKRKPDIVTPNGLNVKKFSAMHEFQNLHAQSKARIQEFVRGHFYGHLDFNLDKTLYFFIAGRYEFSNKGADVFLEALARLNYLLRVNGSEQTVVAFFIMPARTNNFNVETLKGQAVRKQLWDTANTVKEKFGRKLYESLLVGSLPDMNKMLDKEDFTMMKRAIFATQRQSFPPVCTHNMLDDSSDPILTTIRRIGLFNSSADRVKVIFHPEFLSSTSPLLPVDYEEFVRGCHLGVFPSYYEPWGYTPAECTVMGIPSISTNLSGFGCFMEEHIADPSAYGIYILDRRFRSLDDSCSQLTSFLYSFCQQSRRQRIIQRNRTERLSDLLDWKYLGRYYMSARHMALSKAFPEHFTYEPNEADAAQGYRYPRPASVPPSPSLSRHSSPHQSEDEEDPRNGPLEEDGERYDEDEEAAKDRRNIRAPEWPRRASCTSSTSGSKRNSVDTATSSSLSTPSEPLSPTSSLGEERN
Sequence of hGYS1 enzyme (recombinant hGYS1/GN1 protein) (P46976 whole entry partner): as the sequence (P46976 whole entry partner) above

SMILES | IC50 [1] | IC50 [2] | IC50 [3]
O=C(N[C@@H](c1ccccc1)c1ccc(C2CC(F)(F)C2)cn1)[C@@H]1C[C@@H](F)CN1C(=O)CNC(=O)N1CC(F)(F)C1 [Compound 538, (2S,4R)-1-{2-[(3,3-difluoroazetidine-1-carbonyl)amino]acetyl}-N-[(S)-[5-(3,3-difluorocyclobutyl)pyridin-2-yl](phenyl)methyl]-4-fluoropyrrolidine-2-carboxamide] | 0.048 µM | 1.22 µM | > 100 µM
O=C(N[C@@H](c1ccccc1)c1ccc(C2CC(F)(F)C2)cn1)[C@@H]1C[C@@H](F)CN1C(=O)Cc1ncco1 [Compound 539, (2S,4R)-N-[(S)-[5-(3,3-difluorocyclobutyl)pyridin-2-yl] (phenyl)methyl]-4-fluoro-1-[2-(1,3-oxazol-2-yl)acetyl] pyrrolidine-2-carboxamide] | 0.068 µM | 0.96 µM | > 100 µM
O=C(N[C@@H](c1ccccc1)c1ccc(C2CC(F)(F)C2)cn1)[C@@H]1C[C@@H](F)CN1C(=O)Cc1[nH]nnc1C(F)(F)F [Compound 542, (2S,4R)-N-[(S)-[5-(3,3-difluorocyclobutyl)pyridin-2-yl] (phenyl)methyl]-4-fluoro-1-{2-[4-(trifluoromethyl)-1H-1,2,3-triazol-5-yl]acetyl} pyrrolidine-2-carboxamide] | 0.011 µM | 1.48 µM | > 100 µM
CN(C)C(=O)NCC(=O)N1C[C@H](F)C[C@H]1C(=O)N[C@@H](c1ccccc1)c1ccc(C2CC(F)(F)C2)c(F)c1 [Compound 547, (2S,4R)-N-[(S)-[4-(3,3-difluorocyclobutyl)-3-fluorophenyl](phenyl)methyl]-1-{2-[(dimethylcarbamoyl)amino]acetyl}-4-fluoropyrrolidine-2-carboxamide] | 0.016 µM | 0.36 µM | > 100 µM
CN(C)C(=O)NCC(=O)N1C[C@H](F)C[C@H]1C(=O)N[C@H](c1ccccc1)c1ccc(C2CC(F)(F)C2)c(F)c1 [Compound 548, (2S,4R)-N-[(R)-[4-(3,3-difluorocyclobutyl)-3-fluorophenyl](phenyl)methyl]-1-{2-[(dimethylcarbamoyl)amino]acetyl}-4-fluoropyrrolidine-2-carboxamide] | 0.328 µM | 5.76 µM | > 100 µM
O=C(N[C@@H](c1ccccc1)c1ccc(C2CC(F)(F)C2)c(F)c1)[C@@H]1C[C@@H](F)CN1C(=O)Cn1cnc2ccccc21 [Compound 549, (2S,4R)-1-[2-(1H-1,3-benzodiazol-1-yl)acetyl]-N-[(S)-[4-(3,3-difluorocyclobutyl)-3-fluorophenyl](phenyl)methyl]-4-fluoropyrrolidine-2-carboxamide] | 0.006 µM | 0.12 µM | > 100 µM
Cc1cnc(CC(=O)N2C[C@H](F)C[C@H]2C(=O)N[C@@H](c2ccccc2)c2ccc(C3CC(F)(F)C3)c(F)c2)o1 [Compound 550, (2S,4R)-N-[(S)-[4-(3,3-difluorocyclobutyl)-3-fluorophenyl](phenyl)methyl]-4-fluoro-1-[2-(5-methyl-1,3-oxazol-2-yl)acetyl]pyrrolidine-2-carboxamide] | 0.042 µM | 0.65 µM | > 100 µM
O=C(N[C@@H](c1ccccc1)c1ccc(C2CC(F)(F)C2)c(F)c1)[C@@H]1C[C@@H](F)CN1C(=O)Cc1[nH]nnc1C(F)(F)F [Compound 553, (2S,4R)-N-[(S)-[4-(3,3-difluorocyclobutyl)-3-fluorophenyl](phenyl)methyl]-4-fluoro-1-{2-[4-(trifluoromethyl)-1H-1,2,3-triazol-5-yl]acetyl}pyrrolidine-2-carboxamide] | 0.008 µM | 0.4 µM | > 100 µM
Cc1cn(CC(=O)N2C[C@H](F)C[C@H]2C(=O)N[C@@H](c2ccccc2)c2ccc(C3(C)CC3)c(F)c2)c(=O)[nH]c1=O [Compound 556, (2S,4R)-4-fluoro-N—((S)-(3-fluoro-4-(1-methylcyclopropyl)phenyl)(phenyl)methyl)-1-(2-(5-methyl-2,4-dioxo-3,4-dihydropyrimidin-1(2H)-yl)acetyl)pyrrolidine-2-carboxamide] | 0.027 µM | 0.76 µM | > 100 µM
CC1(c2ccc([C@@H](NC(=O)[C@@H]3C[C@@H](F)CN3C(=O)Cc3cnn[nH]3)c3ccccc3)cc2F)CC1 [Compound 558, (2S,4R)-4-fluoro-N-[(S)-[3-fluoro-4-(1-methylcyclopropyl)phenyl](phenyl)methyl]-1-[2-(1H-1,2,3-triazol-5-yl)acetyl]pyrrolidine-2-carboxamide] | 0.136 µM | 2.46 µM | > 100 µM

Continued by falling IC50 [1], values first:

IC50 [1] | IC50 [2] | IC50 [3] | SMILES
0.144 µM | 1.8 µM | > 100 µM | CC1(c2ccc([C@@H](NC(=O)[C@@H]3C[C@@H](F)CN3C(=O)COC(=O)N3CCC3)c3ccccc3)cc2F)CC1 [Compound 560, 2-[(2S,4R)-4-fluoro-2-{[(S)-[3-fluoro-4-(1-methylcyclopropyl)phenyl](phenyl)methyl]carbamoyl}pyrrolidin-1-yl]-2-oxoethyl azetidine-1-carboxylate]
0.082 µM | 1.12 µM | > 100 µM | O=C(N[C@@H](c1ccccc1)c1ccc(C2CC(F)(F)C2)c(F)c1)[C@@H]1C[C@@H](F)CN1C(=O)Cc1ncco1 [Compound 552, (2S,4R)-N-[(S)-[4-(3,3-difluorocyclobutyl)-3-fluorophenyl](phenyl)methyl]-4-fluoro-1-[2-(1,3-oxazol-2-yl)acetyl]pyrrolidine-2-carboxamide]
0.055 µM | 0.65 µM | > 100 µM | Cc1nn(CC(=O)N2C[C@H](F)C[C@H]2C(=O)N[C@@H](c2ccccc2)c2ccc(C3CC(F)(F)C3)cn2)c(=O)o1 [Compound 541, (2S,4R)-N-[(S)-[5-(3,3-difluorocyclobutyl)pyridin-2-yl](phenyl)methyl]-4-fluoro-1-[2-(5-methyl-2-oxo-2,3-dihydro-1,3,4-oxadiazol-3-yl)acetyl]pyrrolidine-2-carboxamide]
0.047 µM | 0.59 µM | > 100 µM | Cc1coc(CC(=O)N2C[C@H](F)C[C@H]2C(=O)N[C@@H](c2ccccc2)c2ccc(C3CC(F)(F)C3)cn2)n1 [Compound 540, (2S,4R)-N-[(S)-[5-(3,3-difluorocyclobutyl)pyridin-2-yl] (phenyl)methyl]-4-fluoro-1-[2-(4-methyl-1,3-oxazol-2-yl)acetyl] pyrrolidine-2-carboxamide]
0.036 µM | 0.87 µM | > 100 µM | Cn1c(CC(=O)N2C[C@H](F)C[C@H]2C(=O)N[C@@H](c2ccccc2)c2ccc(C3(C)CC3)c(F)c2)cc2ccccc21 [Compound 561, (2S,4R)-4-fluoro-N-[(S)-[3-fluoro-4-(1-methylcyclopropyl)phenyl](phenyl)methyl]-1-[2-(1-methyl-1H-indol-2-yl)acetyl]pyrrolidine-2-carboxamide]
0.034 µM | 0.38 µM | > 100 µM | Cc1coc(CC(=O)N2C[C@H](F)C[C@H]2C(=O)N[C@@H](c2ccccc2)c2ccc(C3CC(F)(F)C3)c(F)c2)n1 [Compound 554, (2S,4R)-N-[(S)-[4-(3,3-difluorocyclobutyl)-3-fluorophenyl](phenyl)methyl]-4-fluoro-1-[2-(4-methyl-1,3-oxazol-2-yl)acetyl]pyrrolidine-2-carboxamide]
0.027 µM | 0.51 µM | > 100 µM | O=C(N[C@@H](c1ccccc1)c1ccc(C2CC(F)(F)C2)c(F)c1)[C@@H]1C[C@@H](F)CN1C(=O)Cc1cnn[nH]1 [Compound 546, (2S,4R)-N-[(S)-[4-(3,3-difluorocyclobutyl)-3-fluorophenyl](phenyl)methyl]-4-fluoro-1-[2-(1H-1,2,3-triazol-5-yl)acetyl]pyrrolidine-2-carboxamide]
0.011 µM | 0.16 µM | > 100 µM | O=C(N[C@@H](c1ccccc1)c1ccc(C2CC(F)(F)C2)cn1)[C@@H]1C[C@@H](F)CN1C(=O)Cn1cnc2ccccc21 [Compound 537, (2S,4R)-1-[2-(1H-1,3-benzodiazol-1-yl)acetyl]-N-[(S)-[5-(3,3-difluorocyclobutyl)pyridin-2-yl] (phenyl)methyl]-4-fluoropyrrolidine-2-carboxamide]
0.011 µM | 0.26 µM | > 100 µM | O=C(N[C@@H](c1ccccc1)c1ccc(C2CC(F)(F)C2)c(F)c1)[C@@H]1C[C@@H](F)CN1C(=O)CNC(=O)N1CCC1 [Compound 544, (2S,4R)-1-((azetidine-1-carbonyl)glycyl)-N—((S)-(4-(3,3-difluorocyclobutyl)-3-fluorophenyl)(phenyl)methyl)-4-fluoropyrrolidine-2-carboxamide]
0.007 µM | 0.21 µM | > 100 µM | Cc1cn(CC(=O)N2C[C@H](F)C[C@H]2C(=O)N[C@@H](c2ccccc2)c2ccc(C3CC(F)(F)C3)c(F)c2)c(=O)[nH]c1=O [Compound 551, (2S,4R)-N-[(S)-[4-(3,3-difluorocyclobutyl)-3-fluorophenyl](phenyl)methyl]-4-fluoro-1-[2-(5-methyl-2,4-dioxo-1,2,3,4-tetrahydropyrimidin-1-yl)acetyl]pyrrolidine-2-carboxamide]
